Data reported in paper doi:10.1101/2025.05.09.653172, “Alternative Splicing in TRPA1 Drives Sensory Adaptation to Electrophiles in Drosophilids” (bioRxiv, 2025).

How the values were obtained:
Experiment in all cases: two-electrode voltage clamp, Xenopus oocytes, heat-normalized AITC-evoked current
DmTRPA1-D = molecular target: T1, DmTRPA1-D (Drosophila melanogaster, UniProt H0USS9); assay type: cell-based; conditions: read-out: TRPA1-DL / DmTRPA1-D
T1 construct: gene TrpA1; full CDS of splice isoform D (cDNA gift from Marco Gallio lab) in pOX(+), cRNA-injected Xenopus laevis oocytes
T1 sequence (H0USS9 1-1231): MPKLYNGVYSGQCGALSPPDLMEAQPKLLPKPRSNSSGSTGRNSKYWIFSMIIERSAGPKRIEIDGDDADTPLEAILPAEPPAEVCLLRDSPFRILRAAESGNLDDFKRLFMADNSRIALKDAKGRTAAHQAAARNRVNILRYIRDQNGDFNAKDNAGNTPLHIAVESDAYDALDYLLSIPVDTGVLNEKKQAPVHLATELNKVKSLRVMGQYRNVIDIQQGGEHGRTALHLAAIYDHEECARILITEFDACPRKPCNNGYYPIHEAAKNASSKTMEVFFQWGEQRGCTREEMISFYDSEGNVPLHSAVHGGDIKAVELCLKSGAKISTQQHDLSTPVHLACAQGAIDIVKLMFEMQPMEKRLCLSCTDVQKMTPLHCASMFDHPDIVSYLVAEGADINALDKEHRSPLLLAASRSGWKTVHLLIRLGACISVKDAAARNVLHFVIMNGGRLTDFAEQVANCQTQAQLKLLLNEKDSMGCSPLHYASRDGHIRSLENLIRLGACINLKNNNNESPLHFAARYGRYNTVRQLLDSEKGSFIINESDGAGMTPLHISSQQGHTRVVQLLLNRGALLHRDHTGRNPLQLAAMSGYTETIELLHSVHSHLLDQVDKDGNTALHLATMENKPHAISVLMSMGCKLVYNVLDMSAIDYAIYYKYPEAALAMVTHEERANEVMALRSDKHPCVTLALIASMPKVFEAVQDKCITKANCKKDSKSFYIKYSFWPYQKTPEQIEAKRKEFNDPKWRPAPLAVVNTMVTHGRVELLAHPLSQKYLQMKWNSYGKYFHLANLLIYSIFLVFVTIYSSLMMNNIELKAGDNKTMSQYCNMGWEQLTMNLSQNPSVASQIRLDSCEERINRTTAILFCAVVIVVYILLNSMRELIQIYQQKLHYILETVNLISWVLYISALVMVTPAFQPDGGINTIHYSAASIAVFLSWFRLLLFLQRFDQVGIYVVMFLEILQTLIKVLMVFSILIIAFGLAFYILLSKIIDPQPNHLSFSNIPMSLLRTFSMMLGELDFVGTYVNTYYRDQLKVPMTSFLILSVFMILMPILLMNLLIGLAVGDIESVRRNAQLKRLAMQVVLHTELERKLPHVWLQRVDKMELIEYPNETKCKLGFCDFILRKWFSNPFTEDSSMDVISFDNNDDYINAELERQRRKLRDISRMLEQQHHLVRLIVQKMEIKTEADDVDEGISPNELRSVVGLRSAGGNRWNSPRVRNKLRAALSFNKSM
Source text: two-electrode voltage clamp, Xenopus oocytes, heat-normalized AITC-evoked current on DmTRPA1-D

DmTRPA1-C = molecular target: T2, DmTRPA1-C (Drosophila melanogaster, UniProt G8IQ59); assay type: cell-based; conditions: read-out: TRPA1-CL / DmTRPA1-C
T2 construct: gene TrpA1; full CDS of splice isoform C (cDNA from third-instar larva whole body) in pOX(+), cRNA-injected Xenopus laevis oocytes
T2 sequence (G8IQ59 1-1232): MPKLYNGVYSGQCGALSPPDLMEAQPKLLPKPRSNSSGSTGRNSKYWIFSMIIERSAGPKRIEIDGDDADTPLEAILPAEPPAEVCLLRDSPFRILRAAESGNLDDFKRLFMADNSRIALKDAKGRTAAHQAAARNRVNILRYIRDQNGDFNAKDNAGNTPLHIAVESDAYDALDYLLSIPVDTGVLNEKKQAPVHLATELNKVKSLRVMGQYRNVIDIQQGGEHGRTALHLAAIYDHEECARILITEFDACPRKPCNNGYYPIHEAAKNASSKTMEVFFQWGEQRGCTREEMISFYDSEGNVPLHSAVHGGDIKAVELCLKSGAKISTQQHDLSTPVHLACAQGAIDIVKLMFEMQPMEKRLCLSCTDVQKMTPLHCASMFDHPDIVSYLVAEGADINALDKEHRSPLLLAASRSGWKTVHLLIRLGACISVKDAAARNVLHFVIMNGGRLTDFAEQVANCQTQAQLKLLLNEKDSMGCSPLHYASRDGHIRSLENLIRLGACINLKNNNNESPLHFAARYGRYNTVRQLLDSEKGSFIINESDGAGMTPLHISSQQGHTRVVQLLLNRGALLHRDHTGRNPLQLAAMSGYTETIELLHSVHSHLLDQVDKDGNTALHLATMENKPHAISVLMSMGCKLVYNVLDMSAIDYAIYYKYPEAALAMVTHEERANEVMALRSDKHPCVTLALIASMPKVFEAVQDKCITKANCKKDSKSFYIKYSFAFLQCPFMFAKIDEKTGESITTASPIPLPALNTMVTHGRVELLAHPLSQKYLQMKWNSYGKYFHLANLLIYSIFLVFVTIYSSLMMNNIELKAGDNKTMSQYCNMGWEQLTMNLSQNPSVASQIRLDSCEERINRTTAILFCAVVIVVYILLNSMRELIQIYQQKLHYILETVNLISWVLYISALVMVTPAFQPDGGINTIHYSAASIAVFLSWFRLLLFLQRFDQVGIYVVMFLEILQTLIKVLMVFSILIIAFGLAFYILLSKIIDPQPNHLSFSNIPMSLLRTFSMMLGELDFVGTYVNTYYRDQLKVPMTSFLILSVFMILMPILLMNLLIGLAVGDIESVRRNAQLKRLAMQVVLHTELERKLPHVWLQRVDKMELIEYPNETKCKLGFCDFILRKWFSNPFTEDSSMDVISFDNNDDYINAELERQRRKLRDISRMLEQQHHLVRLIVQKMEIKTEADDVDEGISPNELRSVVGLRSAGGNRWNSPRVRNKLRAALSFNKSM
Source text: two-electrode voltage clamp, Xenopus oocytes, heat-normalized AITC-evoked current on DmTRPA1-C

SfTRPA1-CL = system: T3, SfTRPA1-CL; assay type: cell-based, Scaptomyza flava; conditions: agonist (electrophile); ND96 pH 7.4, -60 mV; after prior heat stimulus (>40 °C); read-out: TRPA1-CL / SfTRPA1-CL
T3 construct: gene TrpA1; full CDS of splice isoform CL (artificial synthesis, Genscript) in pOX(+), cRNA-injected Xenopus laevis oocytes
Source text: two-electrode voltage clamp, Xenopus oocytes, heat-normalized AITC-evoked current on SfTRPA1-CL

SfTRPA1-DL = system: T4, SfTRPA1-DL; assay type: cell-based, Scaptomyza flava; conditions: agonist (electrophile); ND96 pH 7.4, -60 mV; after prior heat stimulus (>40 °C); read-out: TRPA1-DL / SfTRPA1-DL
T4 construct: gene TrpA1; full CDS of splice isoform DL (artificial synthesis, Genscript) in pOX(+), cRNA-injected Xenopus laevis oocytes
Source text: two-electrode voltage clamp, Xenopus oocytes, heat-normalized AITC-evoked current on SfTRPA1-DL

SpTRPA1-DL = system: T5, SpTRPA1-DL; assay type: cell-based, Scaptomyza pallida; conditions: agonist (electrophile); ND96 pH 7.4, -60 mV; after prior heat stimulus (>40 °C); read-out: TRPA1-DL / SpTRPA1-DL
T5 construct: gene TrpA1; full CDS of splice isoform DL (cDNA from adult tarsi) in pOX(+), cRNA-injected Xenopus laevis oocytes
Source text: two-electrode voltage clamp, Xenopus oocytes, heat-normalized AITC-evoked current on SpTRPA1-DL

SpTRPA1-CL = system: T6, SpTRPA1-CL; assay type: cell-based, Scaptomyza pallida; conditions: agonist (electrophile); ND96 pH 7.4, -60 mV; after prior heat stimulus (>40 °C); read-out: TRPA1-CL / SpTRPA1-CL
T6 construct: gene TrpA1; full CDS of splice isoform CL (cDNA from adult labella) in pOX(+), cRNA-injected Xenopus laevis oocytes
Source text: two-electrode voltage clamp, Xenopus oocytes, heat-normalized AITC-evoked current on SpTRPA1-CL

Work on `C=CCN=C=S` [allyl isothiocyanate] yielded an EC50 (DmTRPA1-D) of 341 ± 92 µM, an EC50 (DmTRPA1-C) of 8.6 ± 4.3 µM and an EC50 (SfTRPA1-CL) of 65 ± 55 µM. The EC50 (SfTRPA1-DL) was 316 ± 31 µM, the EC50 (SpTRPA1-DL) was 103 ± 15 µM and the EC50 (SpTRPA1-CL) was 29 ± 15 µM.
